Literature values as cited in patent US20240180842A1, “COLON TARGETED DRUG DELIVERY” (Axial Therapeutics, Inc., priority 2022, published 2024).

Tested on: ASD individuals with high irritability (ABC-I≥18)
Settings: phase 3 study, drug arms; placebo arm 34.7%

O=C1CCc2ccc(OCCCCN3CCN(c4cccc(Cl)c4Cl)CC3)cc2N1 [aripiprazole]
response rate (25% improvement in ABC-I scores and CGI-I≤2): 49-56%
